The text below walks through data of patent US20160083420A1, “DERIVATIVES OF DOLASTATIN 10 AND AURISTATINS” (PIERRE FABRE MEDICAMENT, priority 2013, published 2016).

Square brackets hold non-standard residues; d marks the D form. Peptide text beside a SMILES is read from it. * marks the point of attachment. Dolaproine = CO[C@@H]([C@@H]1CCCN1)[C@@H](C)C(=O)O; Dil = CC[C@H](C)[C@H](NC)[C@@H](CC(=O)O)OC; X5 = CC(C)[C@@H](C(=O)*)N(C)Cc1ccncc1

This assay deals with MDA-MB-231 (breast adenocarcinoma—ATCC HTB-26). The assay can be described thus: ATPlite antiproliferative assay on MDA-MB-231 cells. The assay is classed as cell-based. As to conditions: Homo sapiens, MDA-MB-231, 72 h, MDA-MB-231, 72 h drug treatment, values in text, read-out: EC50, antiproliferative activity on the MDA-MB-231 cell line. The method, then: A549 (Non Small Cell Lung Cancer—ATCC CCL-185) and MDA-MB-231 (breast adenocarcinoma—ATCC HTB-26) cells were cultured in Minimum Essential Medium Eagle (MEM) with 5% fetal calf serum (FCS) and Dulbecco's modified Eagle Medium (DMEM) with 10% FCS respectively. MCF7 (breast ductal carcinoma—ATCC HTB-22) and SN-12C (kidney carcinoma—ATCC) cells were maintained in RPMI1640 medium (without phenol red for MCF7 cells) containing 10% FCS. All the media were supplemented with fungizone (1.25 μg/mL) and penicillin-streptomycin (100 U/100 μg/mL). Cells were cultured under standard conditions in an incubator at 37° C., 5% CO2 and 95% atmospheric humidity.
Compounds according to the invention were investigated for their antiproliferative activity using an ATPlite proliferation assay (Perkin Elmer, Villebon sur Yvette, France) on a comprehensive panel of 4 cell lines. […] On day 4, cell viability was evaluated by dosing the ATP released by viable cells. The number of viable cells was analyzed in comparison with the number of solvent treated cells. The EC50 values were determined with curve fitting analysis (non linear regression model with a sigmoidal dose response, variable hill slope coefficient), performed with the algorithm provided by the GraphPad Software (GraphPad Software Inc., CA, USA).

As for `CC[C@H](C)[C@@H]([C@@H](CC(=O)N1CCC[C@H]1[C@H](OC)[C@@H](C)C(=O)N[C@@H](Cc1ccccc1)C(=O)OC)OC)N(C)C(=O)[C@@H](NC(=O)[C@H](C(C)C)N(C)Cc1ccncc1)C(C)C` [Example 3] (X5-V[Dil][Dolaproine]F-OMe), the concentration for a half-maximal effect (EC50) amounted to 0.41 nM.
